ChEMBL document CHEMBL3045917, “Insecticidal cyclodepsipeptides from Beauveria felina” (2011)
In brackets after ≈: the same amount, converted by molar mass. Where a SMILES comes first, the peptide text is derived from it. [ ]: non-standard residue; d: D form. ξ: configuration not given here. ξLac(3-iPr) = CC(C)CC(O)C(=O)O; NMeV = CN[C@H](C(=O)O)C(C)C; βAla = NCCC(=O)O

Key:
Sitophilus = experiment: Insecticidal activity against Sitophilus spp. assessed as mortality after 5 days; type: functional; conditions: 120 h, read-out: LD50 (the source's name)
Callosobruchus maculatus = experiment: Insecticidal activity against Callosobruchus maculatus assessed as mortality after 5 days; type: functional; conditions: 120 h, read-out: LD50 (the source's name)

Compound	LC50 (Sitophilus)	LC50 (Callosobruchus maculatus)
CC(C)CC1OC(=O)CCNC(=O)[C@H](C(C)C)N(C)C(=O)[C@H](C(C)C)N(C)C(=O)[C@H](Cc2ccccc2)NC(=O)[C@@H]2CCCN2C1=O (stereo partly drawn) [ISARIDIN E] (cyclo(F[NMeV][NMeV][βAla][ξLac(3-iPr)]P))	300 µg/mL (≈ 457 µM)	220 µg/mL (≈ 335 µM)
CCCCC(C)C1CC(=O)NCC(=O)N[C@@H](C(C)C)C(=O)N[C@H](CC(C)C)C(=O)N[C@@H](C)C(=O)N[C@H](C(C)C)C(=O)O1 (stereo partly drawn) [ISO-ISARIIN B]	10 µg/mL (≈ 16.8 µM)	
